Marks after values point to notes of the source that are not given here.
Test system: turkey poults
Conditions: in vivo
From the text: The values shown in Table 4 are the average values±the standard error. The values in parentheses indicate the number of hearts. CK is creatine kinase, LDH is lactate dehydrogenase, and AST is aspartate transaminase. Ca^2+-ATPase activity was normalized per gram of protein. * represents p<0.05.

ATP synthase: 87 ± 4* (4) IU/g | LDH: 219 ± 12* (9) IU/g | Myoglobin: 27.2 ± 3.1* (5) μg/g | SR Ca2+ cycling: Ca2+-ATPase: 3.4 ± 0.6* (4) IU/g | SR Ca2+ cycling: Ca2+-ATPase pump: 24.4 ± 6.3* (9) nM/s | Total ATPase: 16.8 ± 0.9* (4) IU/g | Total protein: 111 ± 3.0* (8) mg/g | myofibrillar protein content: 34.6 ± 2.5 mg/g
Compound: O=C1OCCN1/N=C/c1ccc([N+](=O)[O-])o1 [Fz, furazolidone]

From US20080108511A1, “GENES AND GENE PRODUCTS […] EXPRESSED DURING HEART FAILURE” (priority 2006, published 2008)
